Among the data in patent US9096595B2, “7-(heteroaryl-amino)-6,7,8,9-tetrahydropyrido[1,2-a]indol acetic acid derivatives and their use as prostaglandin D2 receptor modulators” (Actelion Pharmaceuticals Ltd, priority 2011, dated 2015) are IC50 values, retold here.

Assay [1] deals with T1, hCRTH2 receptor (Homo sapiens (Human), UniProt Q9Y5Y4). The experiment in a line: hCRTH2 receptor membranes radioligand (3H-PGD2) displacement assay. Conditions: 3H-PGD2 2.5 nM, HEK293-hCRTH2 membrane fragments, Binding-Buffer with 0.1% BSA. How it is done:
(§1) First, recombinant HEK293-hCRTH2 cells were detached from culture plates into 5 ml buffer A/plate (Buffer A: 5 mM Tris, 1 mM MgCl2-6H2O pH=7.4) using a rubber policeman. Cells were then transferred into centrifugation tubes and centrifuged for 5 min at 400 g. The cell pellet was resuspended in the same buffer and tubes were frozen at −80° C. Cells were thawed and membrane fragments were generated by homogenization using a polytron homogenizer (30 seconds). The membrane fragments were then centrifuged at 3000 g for 20 minutes and resuspended in buffer C (Buffer C: 75 mM Tris, 25 mM MgCl2, 250 mM Saccharose pH 7.4). Aliquots of membrane fragments were stored at −20° C.
(§2) Binding assay was performed in a final assay volume of 250 μl. First, 25 μl of test compound, previously diluted in Binding-Buffer (Binding-Buffer: 50 mM Tris-Base, 100 mM NaCl, 1 mM EDTA, 0.1% BSA (protease free), 0.01% NaN3, 10 mM MnCl2 pH 7.0) was placed into each well. After addition of 75 μl Binding-Buffer, 50 μl of the radioligand ^3H-PGD2 (at 2.5 nM (220.000 dpm/well) from ANAWA ART0662) was added to each well. Binding assay was started by addition of 100 μl CRTH2 membrane fragments, reaching a final concentration of 20 μg/well. For non-specific binding, PGD2 was added to the reaction mixture to […] final concentration. This assay mix was incubated for 90 minutes at room temperature and then filtered through a GF/C filter 96-well plate which was pre-soaked for 3 hours in 0.5% polyethyleneimine (PEI). The filter-wells were washed three times with ice cold Binding-Buffer. Then, 40 μl of Microscint-40 (Packard) was added to each well and the retained radioactivity quantified in a Topcount (Packard).

The target in assay [2] is T1, hCRTH2 receptor. The experiment in a line: Radioligand displacement assay in presence of human serum albumin (HSA). As to conditions: 3H-PGD2 2.5 nM, HEK293-hCRTH2 membrane fragments, Binding-Buffer-HSA with 0.5% human serum albumin instead of 0.1% BSA. How it is done:
as §1, §2
Radioligand displacement assay in presence of human serum albumin (HSA) was performed as described above, with following modifications. Binding-Buffer-HSA: Binding-buffer+0.5% Sigma Albumin from Human serum A1887 (instead of 0.1% BSA). A volume of 25 μl test compound, previously diluted in Binding-Buffer-HSA was placed into each well. After addition of 75 μl Binding-Buffer-HSA, 50 μl of ^3H-PGD2 (at 2.5 nM (220.000 dpm/well) from ANAWA ART0662) was added to each well. Remaining protocol was identical as described above.

T1 sequence (Q9Y5Y4 whole entry, the tested form may be a part): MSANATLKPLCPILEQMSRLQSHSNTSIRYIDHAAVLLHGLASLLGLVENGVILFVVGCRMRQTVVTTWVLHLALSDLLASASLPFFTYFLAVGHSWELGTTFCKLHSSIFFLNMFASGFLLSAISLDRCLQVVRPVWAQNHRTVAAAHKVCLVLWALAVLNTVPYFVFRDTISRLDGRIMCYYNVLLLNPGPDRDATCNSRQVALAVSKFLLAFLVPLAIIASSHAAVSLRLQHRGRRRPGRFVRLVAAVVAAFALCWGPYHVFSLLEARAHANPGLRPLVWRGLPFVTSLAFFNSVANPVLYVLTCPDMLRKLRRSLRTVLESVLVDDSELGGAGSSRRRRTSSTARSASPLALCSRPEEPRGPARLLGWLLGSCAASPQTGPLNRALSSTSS

For orientation: IC50 means the concentration needed to halve the response being measured. For the compound `O=C(O)Cc1c2n(c3cc(Cl)ccc13)CC(N(CC1CC1)c1ncc(F)cn1)CC2` (centres unmarked) [Example 51, 2-(3-chloro-7-((cyclopropylmethyl)(5-fluoropyrimidin-2-yl)amino)-6,7,8,9-tetrahydropyrido[1,2-a]indol-10-yl)acetic acid], the IC50 on hCRTH2 receptor [1] is 0.6 nM; at hCRTH2 receptor [2] it was 9 nM.
